Key:
[1] = In vitro antitumor/anticancer testing (CCK-8), SMMC-7721; assay type: cell-based, human; conditions: SMMC-7721; 48 h
Procedure: Each of Tea Product 1 and Conventional Tea Product obtained in section A of this example was used to prepare test tea samples according to the method described below. A proper amount of the respective tea product was added into sterile water to prepare a stock solution with a concentration of 100 mg/mL, followed by using a membrane filter with a pore size of 0.22 μm to conduct vacuum filtration and sterilization. The resulting stock solution was diluted with a respective complete medium shown in Table 3 below to form test tea samples with different concentrations. In other words, the thus obtained test tea samples to be used for treating a respective cancer/tumor cell line shown in Table 3 were prepared using the same complete medium as that for the respective cancer/tumor cell line. […] Specifically, each of the aforesaid commercially available agents was subjected to the method described below to prepare comparative test samples. A proper amount of a respective commercially available agent was dissolved in phosphate-buffered saline (PBS) to prepare a stock solution with a concentration of 5 mg/mL, followed by using a membrane filter with a pore size of 0.22 μm to conduct vacuum filtration and sterilization. The resulting stock solution was diluted with a respective complete medium shown in Table 3 below to form comparative test samples with different concentrations. To be specific, the comparative test samples prepared from the respective commercially available agent have the concentrations shown in Table 2 below. The thus obtained comparative test samples to be used for treating a respective cancer/tumor cell line shown in Table 3 were prepared using the same complete medium as that for the respective cancer/tumor cell line. […] The cultivation of each cancer/tumor cell line is described as follows. […] Afterwards, a cell suspension having a cell density of 1.0×10^4 cells/mL was prepared. […] As experimental groups, the tumor/cancer cells of each cell line were treated with the test tea samples prepared from one or more of the tea products and the comparative test samples prepared from one or more of the commercially available agents as obtained in section B of this example (for more detailed information about the tea product(s) and the commercially available product (s) used to treat each cell line, please see Table 4 below). To be specific, 6 to 10 test tea samples prepared from the same tea product and having different concentrations, as well as 6 to 10 comparative test samples prepared from the same commercially available agent and having different concentrations, were utilized to treat the tumor/cancer cells of each cell line. For each experimental group, 6 repetitions of tumor/cancer treatment were performed. For the control group, 100 μL of PBS was added to a well containing the medium and the cancer/tumor cells of the respective cell line. For the blank group, 100 μL of PBS was added to a well containing a complete medium the same as that used for cultivation of the cancer/tumor cells of the respective cell line. After the treatment described above, cultivation was conducted in an incubator (37° C., 100% relative humidity, 5% CO2) for 48 hours. Subsequently, the liquid containing the medium and the sample in the well was removed, and a respective complete medium (shown in Table 3 above) containing 10% CCK-8 (Cell Counting Kit-8)(Dojindo Molecular Technologies, Inc., Cat. No. CK04-13) was added. Cultivation was performed in an incubator (37° C.) for 2 to 4 hours, followed by gently shaking.

[2] = test system: HepG2 transplanted tumor (inoculated tumor tissue pieces); test: In vivo antitumor testing, second and third experiments (Animal Model 2); parameters: species or system BALB/c nude mice; conditions: second experiment
Procedure: The establishment of Animal Model 2 is described below. Male BALB/c nude mice (5 to 6 weeks of age, a body weight of 15 to 16 g, certificate number: SCXK (Hu) 2012-0002) were purchased from Shanghai Silaike Experiment Animal Co., Ltd and were acclimatized for one week. A cell suspension of HepG2 cells having a concentration of 1×10^7 cells/mL was prepared using the same method as that for preparing the cell suspension for Animal Model 1. 0.2 mL of the cell suspension was subcutaneously injected into the back of each of 5 nude mice. […] Tea Product 1 and Conventional Tea Product obtained in section A of Example 3, as well as 5-fluorouracil mentioned in section B of Example 3, were examined for their in vivo antitumor activity. […] In the third experiment, nude mice of Animal Model 2 were divided into three groups, i.e. a control group (n=11), a Tea Product 1 group (n=11), and a Conventional Tea Product group (n=8). […] In all the three experiments above, each of the nude mice was sacrificed 24 hours after the termination of the treatment. The tumor was collected and weighed. The antitumor effect of a respective test substance was evaluated by virtue of the percent tumor growth inhibition (%), which was calculated using the following Equation II: E=[(F−G)/(F)]×100% (I) • E=percent tumor growth inhibition (%) • F=tumor weight of control group • G=tumor weight of respective test substance group The experimental data are expressed as mean±SEM (standard error of the mean). The experimental data were subjected to one-way analysis of variance (ANOVA) using SPSS (Statistical Package for Social Sciences) software package version 11.5, such that the difference between the groups could be evaluated. The data regarding the tumor weights of the groups were subjected to t-test. Statistical significance is indicated by p<0.05.

[3] = 35 days, 5-fluorouracil 15.0 mg/kg per day intra-abdominal injection, Tea Product 1 0.6 mL of 10% per day intragastric gavage

| IC50 [1] | Compound | Body weight Before treatment ([2]; Animal Model 2, baseline) | Body weight After treatment [2, 3] | Percent tumor growth inhibition [2, 3] | Tumor weight [2, 3] |
| --- | --- | --- | --- | --- | --- |
| IC50 (μg/mL) = 77.41 | O=C(O[C@@H]1Cc2c(O)cc(O)cc2O[C@@H]1c1cc(O)c(O)c(O)c1)c1cc(O)c(O)c(O)c1 [EGCG monomer, epigallocatechin gallate] |  |  |  |  |
|  | O=c1[nH]cc(F)c(=O)[nH]1 [5-fluorouracil] | 17.22 g | 24.32 g | 48.96% | 0.034 g |

— patent US20180071354A1, “SELECTIVE BREEDING METHOD OF ANTITUMOR/ANTICANCER CAMELLIA SINENSIS STRAIN, AND TEA PRODUCT OF SUCH STRAIN” (FUJIAN AGRICULTURE AND FORESTRY UNIVERSITY, priority 2015, published 2018)
